Laboratory results: patent US6506707B1, “Herbicidal compositions containing plant essential oils and mixtures or blends thereof” (Ecosmart Technologies, Inc., priority 1999, dated 2003)

What was measured:
[1] = test system: greenhouse-grown cabbage leaves; assay: Direct droplet bioassay on cabbage leaves (Examples 5 and 7); type: in vivo; conditions: applied in one microliter of methanol; for EC50 (amount producing 50% of maximum effect): cabbage leaves; for relative toxicity to cabbage leaves (ranking by EC50): individual oils
Experimental: Various plant essential oils were tested for toxicity (herbicidal action) against greenhouse-grown cabbage leaves. Individual oils were ranked for relative toxicity using the direct droplet bioassay on the cabbage leaves.
Various plant essential oils were tested for synergistic effects on the toxicity (herbicidal action) against greenhouse-grown cabbage leaves. Individual oils were ranked for relative toxicity using the direct droplet bioassay on the cabbage leaves, and compared to mixtures at different ratios. […]

dandelion = assay: Direct droplet bioassay on dandelion (Example 6); type: in vivo; conditions: individual oils, applied in one microliter of methanol
Experimental: Various plant essential oils were tested for toxicity (herbicidal action) against dandelion. Individual oils were ranked for relative toxicity using the direct droplet bioassay on the dandelion. EC50 values (amount producing 50% of maximum effect) were recorded in micrograms (all applied in one microliter of methanol) and plotted on a graph for comparison.

C=CCc1ccc(O)c(OC)c1 [Eugenol]
EC50 (amount producing 50% of maximum effect) [1]: 46.1 micrograms

CCC(=O)OCCc1ccccc1 [Phenethyl Propionate (PEP), Phenethyl Propionate]
EC50 (amount producing 50% of maximum effect) [1]: 158.8 micrograms

Cc1ccc(C(C)C)c(O)c1 [Thymol]
EC50 (amount producing 50% of maximum effect) [1]: 10.7 micrograms

CC12CCC(CC1)C(C)(C)O2 [cineole, Cineole]
relative toxicity to dandelion (ranking by EC50) (dandelion): most toxic

O=C/C=C/c1ccccc1 [cinnamic aldehyde, Cinnamic Aldehyde]
relative toxicity to dandelion (ranking by EC50) (dandelion): most toxic
relative toxicity to cabbage leaves (ranking by EC50) [1]: most toxic

CC(C)=CCCC(C)CC=O (stereo not drawn) [citronellal, Citronellal]
relative toxicity to dandelion (ranking by EC50) (dandelion): most toxic
relative toxicity to cabbage leaves (ranking by EC50) [1]: most toxic

COC(=O)c1ccccc1O [methyl salicylate, Methyl Salicylate]
relative toxicity to dandelion (ranking by EC50) (dandelion): most toxic
relative toxicity to cabbage leaves (ranking by EC50) [1]: most toxic

Cc1ccc(C(C)C)c(O)c1 [white thymol, White Thymol]
relative toxicity to dandelion (ranking by EC50) (dandelion): most toxic
relative toxicity to cabbage leaves (ranking by EC50) [1]: most toxic
